Results as given in patent publication US9073918B2, “Pyrazolo[4,3-b]pyridine-7-amine inhibitors of ALK5” (Takeda Pharmaceutical Company Limited, priority 2010, dated 2015).

Experiments:
[1] = biological target: T1, TGF-β R1 ALK5 (Homo sapiens, UniProt P36897); assay: In vitro inhibition of ALK5 (LanthaScreen activity assay, TR-FRET); assay type: biochemical
T1 construct: purchased Invitrogen PV5837
T1 sequence (P36897 34-503): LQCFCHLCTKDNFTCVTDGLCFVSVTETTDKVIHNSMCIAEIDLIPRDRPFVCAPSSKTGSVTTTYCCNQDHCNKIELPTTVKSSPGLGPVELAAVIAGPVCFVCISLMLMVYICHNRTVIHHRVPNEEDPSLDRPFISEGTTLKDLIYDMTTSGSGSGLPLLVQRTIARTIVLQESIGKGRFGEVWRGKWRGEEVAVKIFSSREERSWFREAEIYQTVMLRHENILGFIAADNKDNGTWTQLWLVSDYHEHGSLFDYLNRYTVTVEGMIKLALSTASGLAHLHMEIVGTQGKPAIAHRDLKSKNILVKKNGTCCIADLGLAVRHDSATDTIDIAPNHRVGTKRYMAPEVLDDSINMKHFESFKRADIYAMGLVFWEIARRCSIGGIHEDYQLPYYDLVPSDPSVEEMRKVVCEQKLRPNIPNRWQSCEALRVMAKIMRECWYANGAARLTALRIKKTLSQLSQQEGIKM
Protocol: Test compounds were screened for TGF-β R1 ALK5 inhibition by use of a LanthaScreen™ activity assay (PV5837 Invitrogen, Invitrogen Corp. Madison, Wis.).
In brief, the assay procedure was as follows:
Solutions of test compounds were prepared in DMSO and diluted two-fold serially.
Assays were incubated for 90 minutes at room temperature and then quenched by the addition of 60 mM EDTA and 8 nM Terbium labeled anti-pSMAD3 Antibody (M4337 from Invitrogen) giving a final concentration of 15 mM EDTA and 2 nM Terbium labeled anti-pSMAD3 Antibody. Phosphorylated peptide product was quantified by measuring an increase in TR-FRET on a BMG LABTECH PHERA star plus. Response is defined as the ratio of Channel A/Channel B. The response of a blank (uninhibited) using vehicle alone is also determined. Enzyme activity was defined as the response of uninhibited enzyme activity minus the response of assays containing no enzyme. The percent inhibition of ALK5 at a given compound concentration is defined as: 100%×[1−(response compound/response blank)]
where response compound is defined as the enzyme activity in the presence of test compound and response blank is defined as the uninhibited enzyme activity. The pIC50 value (negative log of the molar concentration of the compound that produces 50% inhibition) of a test compound is calculated by non-linear least squares curve fitting of the equation: Percent Inhibition=100%/(1+(10−pIC50/10 log [I])).
Where inhibition was measured in multiple experiments the value in Table 1 is an average. N.T. means not tested.

[2] = biological target: T2, cellular TGF-β R1 ALK5 (Homo sapiens, UniProt P36897); assay: Cellular inhibition of ALK5 (CellSensor SBE-bla HEK 293T beta-lactamase reporter); assay type: cell-based; conditions: cellular inhibition of ALK5, SBE-bla HEK 293T cells, TGFb-1 stimulated 5 hours; average where measured in multiple experiments
T2 construct: host or cells: CellSensor SBE-bla HEK 293T
T2 sequence (P36897 34-503): T1 sequence (P36897 34-503)
From the text: Test compounds were screened for cellular TGF-β R1 ALK5 inhibition by use of a CellSensor® SBE-bla HEK 293T (K1550, Invitrogen Corp. Madison, Wis.) cell line. The CellSensor® SBE-bla HEK 293T cell line contains a beta-lactamase reporter gene under control of the SBE response element stably integrated into HEK 293T cells. The SBE response element is a DNA region that binds activated SMADs which results from the binding of TGF-β to, and subsequent activation of ALK5.
The assay procedure was as follows:
CellSensor® SBE-bla HEK 293T cell line were plated at 12,000 cells/well in 40 ul DMEM plus 5 ug/ml blasticidin into 384-well, black-wall, clear-bottom assay plate and incubated overnight.
The following day 5 uL of 10×, 2.5-fold serially diluted test compounds in DMSO were added into cells to a final compound concentration of 1× and DMSO concentration of 0.5%. Assay was incubated for 1 hour at 37° C., 5% CO2, 5 uL of 100 ng/mL TGFb-1 was then added to activate ALK5 and incubated for 5 hours at 37° C., 5% CO2, 10 uL of detector, LiveBLAzer FRET B/G substrate (CCF4-AM, Invitrogen Corp. Madison, Wis.) was added to cells and incubated for 2 hours at RT. Assay was measured using Spectramax, a bottom-read fluorescence plate reader, at excitation setting of 405 nm and emission settings of 460 nm and 530 nm.
Response is defined as the ratio of background corrected 460 nm emission values/background corrected 530 nm emission values. Cellular activity was defined as percent inhibition of uninhibited ALK5 activity (wells treated with DMSO+TGF-β). The percent inhibition of cellular ALK5 at a given compound concentration is defined as: 100%×[1−(response compound+TGF-β/response DMSO+TGF-β)] where response compound+TGF-β is defined as the activity in the presence of test compound and response DMSO+TGF-β is defined as the uninhibited cellular ALK5 activity. The pIC50 value (negative log of the molar concentration of the compound that produces 50% inhibition) of a test compound is calculated by non-linear least squares curve fitting. pIC50 values, the negative of the log of the IC50, are calculated by non-linear curve fitting of the compound concentrations and percent of inhibition to the standard pIC50 equation.
Where inhibition was measured in multiple experiments the value in Table 2 is an average. N.T. means not tested.

Structure (SMILES)	IC50 [1] [nM]	IC50 [2] [nM]
CN(C)C(=O)n1ncc2nccc(Nc3ccnc(-c4cc(Cl)ccc4F)c3)c21 [Example 39, 7-(2-(5-chloro-2-fluorophenyl)pyridin-4-ylamino)-N,N-dimethyl-1H-pyrazolo[4,3-b]pyridine-1-carboxamide]	100	316
Cn1cc2nccc(Nc3ccnc(-c4cccc(Cl)c4)c3)c2n1 [Example 48, N-(2-(3-chlorophenyl)pyridin-4-yl)-2-methyl-2H-pyrazolo[4,3-b]pyridin-7-amine]	200	200
Cc1cnc(-c2cc(Cl)ccc2F)cc1Nc1ccnc2cnn(C(=O)NC(C)C)c12 [Example 54, 7-(2-(5-chloro-2-fluorophenyl)-5-methylpyridin-4-ylamino)-N-isopropyl-1H-pyrazolo[4,3-b]pyridine-1-carboxamide]	63.1	100
Cc1cnc(-c2cc(Cl)ccc2F)cc1Nc1ccnc2cn(C(C)(C)C(N)=O)nc12 [Example 55, 2-(7-(2-(5-chloro-2-fluorophenyl)-5-methylpyridin-4-ylamino)-2H-pyrazolo[4,3-b]pyridin-2-yl)-2-methylpropanamide]	79.4	631
CNC(=O)n1ncc2nccc(Nc3cc(C)nc(-c4cc(Cl)ccc4F)c3)c21 [Example 58, 7-(2-(5-chloro-2-fluorophenyl)-6-methylpyridin-4-ylamino)-N-methyl-1H-pyrazolo[4,3-b]pyridine-1-carboxamide]	79.4	126
Cc1ccc(F)c(-c2cc(Nc3ccnc4cnn(C)c34)ccn2)n1 [Example 65, N-(3′-fluoro-6′-methyl-2,2′-bipyridin-4-yl)-1-methyl-1H-pyrazolo[4,3-b]pyridin-7-amine]	100	126
Cc1ccc(F)c(-c2cc(Nc3ccnc4cnn(C(C)C)c34)ccn2)n1 [Example 67, N-(3′-fluoro-6′-methyl-2,2′-bipyridin-4-yl)-1-isopropyl-1H-pyrazolo[4,3-b]pyridin-7-amine]	126	126
Cc1ccc(F)c(-c2cc(Nc3ccnc4cn(C(C)C)nc34)ccn2)n1 [Example 68, N-(3′-fluoro-6′-methyl-2,2′-bipyridin-4-yl)-2-isopropyl-2H-pyrazolo[4,3-b]pyridin-7-amine]	1260	1260
Cc1ccc(F)c(-c2cc(Nc3ccnc4cn(C[C@H](O)CO)nc34)ccn2)n1 [Example 69, (S)-3-(7-(3′-fluoro-6′-methyl-2,2′-bipyridin-4-ylamino)-2H-pyrazolo[4,3-b]pyridin-2-yl)propane-1,2-diol]	5010	5010
CNC(=O)n1ncc2nccc(Nc3cc(-c4cccc(C)n4)ncc3C)c21 [Example 81, 7-(5,6′-dimethyl-2,2′-bipyridin-4-ylamino)-N-methyl-1H-pyrazolo[4,3-b]pyridine-1-carboxamide]	63.1	126

More lines, in order of falling IC50 [1], values ahead:

IC50 [1] [nM]	IC50 [2] [nM]	Structure (SMILES)
63.1	316	OC[C@H](O)Cn1cc2nccc(Nc3ccnc(-c4cc(Cl)ccc4F)c3)c2n1 [Example 46, (R)-3-(7-(2-(5-chloro-2-fluorophenyl)pyridin-4-ylamino)-2H-pyrazolo[4,3-b]pyridin-2-yl)propane-1,2-diol]
50.1	63.1	Cc1ccc(F)c(-c2cc(Nc3ccnc4cnn(CCO)c34)ccn2)n1 [Example 71, 2-(7-(3′-fluoro-6′-methyl-2,2′-bipyridin-4-ylamino)-1H-pyrazolo[4,3-b]pyridin-1-yl)ethanol]
39.8	39.8	Cc1ccc(F)c(-c2cc(Nc3ccnc4cn(C)nc34)ccn2)n1 [Example 66, N-(3′-fluoro-6′-methyl-2,2′-bipyridin-4-yl)-2-methyl-2H-pyrazolo[4,3-b]pyridin-7-amine]
31.6	31.6	Cc1cnc(-c2cc(Cl)ccc2F)cc1Nc1ccnc2cn[nH]c12 [Example 49, N-(2-(5-chloro-2-fluorophenyl)-5-methylpyridin-4-yl)-1H-pyrazolo[4,3-b]pyridin-7-amine]
31.6	31.6	CNC(=O)n1ncc2nccc(Nc3cc(-c4cc(Cl)ccc4F)ncc3C)c21 [Example 52, 7-(2-(5-chloro-2-fluorophenyl)-5-methylpyridin-4-ylamino)-N-methyl-1H-pyrazolo[4,3-b]pyridine-1-carboxamide]
31.6	50.1	CCNC(=O)n1ncc2nccc(Nc3cc(-c4cc(Cl)ccc4F)ncc3C)c21 [Example 53, 7-(2-(5-chloro-2-fluorophenyl)-5-methylpyridin-4-ylamino)-N-ethyl-1H-pyrazolo[4,3-b]pyridine-1-carboxamide]
31.6	501	Cc1cc(Nc2ccnc3cnn(CC(N)=O)c23)cc(-c2cc(Cl)ccc2F)n1 [Example 60A, 2-(7-(2-(5-chloro-2-fluorophenyl)-6-methylpyridin-4-ylamino)-1H-pyrazolo[4,3-b]pyridin-1-yl)acetamide]
31.6	398	CNC(=O)n1ncc2nccc(Nc3ccnc(-c4cc(Cl)c(F)cc4F)c3)c21 [Example 63, 7-(2-(5-chloro-2,4-difluorophenyl)pyridin-4-ylamino)-N-methyl-1H-pyrazolo[4,3-b]pyridine-1-carboxamide]
15.8	12.6	Cc1cnc(-c2cc(Cl)ccc2F)cc1Nc1ccnc2cn(CC(N)=O)nc12 [Example 50, 2-(7-(2-(5-chloro-2-fluorophenyl)-5-methylpyridin-4-ylamino)-2H-pyrazolo[4,3-b]pyridin-2-yl)acetamide]
15.8	31.6	Cc1ccc(F)c(-c2cc(Nc3ccnc4cnn(CC(C)(C)O)c34)ccn2)n1 [Example 70, 1-(7-(3′-fluoro-6′-methyl-2,2′-bipyridin-4-ylamino)-1H-pyrazolo[4,3-b]pyridin-1-yl)-2-methylpropan-2-ol]
15.8	63.1	COCCn1ncc2nccc(Nc3ccnc(-c4nc(C)ccc4F)c3)c21 [Example 73, N-(3′-fluoro-6′-methyl-2,2′-bipyridin-4-yl)-1-(2-methoxyethyl)-1H-pyrazolo[4,3-b]pyridin-7-amine]
12.6	20	Cc1cnc(-c2cc(Cl)ccc2F)cc1Nc1ccnc2cnn(CC(N)=O)c12 [Example 51, 2-(7-(2-(5-chloro-2-fluorophenyl)-5-methylpyridin-4-ylamino)-1H-pyrazolo[4,3-b]pyridin-1-yl)acetamide]
7.94	100	NC(=O)Cn1cc2nccc(Nc3ccnc(-c4cc(Cl)ccc4F)c3)c2n1 [Example 43, 2-(7-(2-(5-chloro-2-fluorophenyl)pyridin-4-ylamino)-2H-pyrazolo[4,3-b]pyridin-2-yl)acetamide]
